Series [1] is described as follows: Photostability, thin-film irradiation (Atlas Suntest). It is filed as physicochemical. Particulars: thin film on glass, filtered xenon lamp 750 W/m2; time for first 50% loss. How it is done: Throughout the following description, LogP means logarithm of the partition coefficient, ppm means parts per million, and T50 represents the half-time of the compound under irradiation conditions.
Photostability tests were carried out by irradiation of thin-film deposits of compounds and 20 formulations on glass surfaces, using a filtered xenon lamp system (Atlas Suntest) which reproduces the spectrum and intensity of sunlight. The spectral output power of the Suntest was set to 750 W/m2, which is the typical daily maximum irradiance level at noon (UK, midsummer).
Test compounds were typically dissolved in HPLC grade methanol to give 1 g/L stock solutions. Alternatively, formulated compounds were suspended in water at the same concentration. 2 μL droplets of test solutions were spotted onto microscope cover slips in a 3D printed holder, allowed to dry then irradiated in the Suntest for varying times. […] Solutions were analysed by reverse phase HPLC, typically using a Waters UPLC system with Photodiode Array (PDA) and Waters columns (BEH C18, 100×2.1mm×1.7 μm) using mixed aqueous:acetonitrile mobile phase, acidifed with 0.2% formic acid. Peak detection was at the optimum wavelength for each candidate compound and PDA peak areas were used for quantification. […]

The nature of a further series: physchem. Particulars: pH 7.
Series [2] is classed as physicochemical. The following applies: for Solubility in water: pH 7.2. How it is done:
Saturated solutions of test compounds were prepared in either aqueous buffer solutions (10 mM mixed phosphate, pH 7.20) or in heptane. Typically 1 mg of test compound in a 2 dram vial with 1 mL of buffer or heptane was left overnight (20 hours) on a roller shaker after an initial 20 minute period in a sonic bath. Saturated samples were then filtered through Millex-HV 0.45 micron syringe driven filters (aqueous or non-aqueous version dependent on solvent). […] Protocol variations included pre-saturation of the filters for compounds expected to have very low solubility, and centrifugation of the saturated samples for oils.

Series [3] concerns Monographella nivalis (Microdochium nivale). Nature of the series: Monographella nivalis (Microdochium nivale) / liquid culture (foot rot cereals). The following applies: growth inhibition photometrically 4-5 days after application, read-out: control of Monographella nivalis. The class given is cell-based. On the procedure: Example B7: Monographella Nivalis (Microdochium Nivale)/Liquid Culture (Foot Rot Cereals) Conidia of the fungus from cryogenic storage are directly mixed into nutrient broth (PDB potato dextrose broth). After placing a (DMSO) solution of test compound into a microtiter plate (96-well format), the nutrient broth containing the fungal spores is added. The test plates are incubated at 24° C. and the inhibition of growth is determined photometrically 4-5 days after application. […] […].23.

The subject of series [4] is Magnaporthe grisea (Pyricularia oryzae). Nature of the series: whole plant or invertebrate. It is filed as in vivo. Particulars: foliar, read-out: control of Magnaporthe grisea.
A further series deals with Pyrenophora teres. Nature of the series: Pyrenophora teres / barley / leaf disc preventative (net blotch). It is filed as in vivo. Particulars: foliar, barley leaf segments, compared to untreated control. How it is done: Example B14: Pyrenophora Teres/Barley/Leaf Disc Preventative (Net Blotch) Barley leaf segments cv. Hasso are placed on agar in a multiwell plate (24-well format) and sprayed with the formulated test compound diluted in water. The leaf […] inoculated with a spore suspension of the fungus 2 days after application. The inoculated leaf segments are incubated at 20° C. and 65% rh under a light regime of 12 h light/12 h darkness in a climate cabinet and the activity of a compound is assessed as disease control compared to untreated when an appropriate level of disease damage appears in untreated check leaf segments (5-7 days after application). […] […].23.

The test system of series [5] is Mycosphaerella graminicola (Septoria tritici). Nature of the series: Mycosphaerella graminicola (Septoria tritici) / liquid culture (Septoria blotch). It is filed as cell-based. The following applies: Zymoseptoria tritici, growth inhibition photometrically 4-5 days after application, read-out: control of Mycosphaerella graminicola. On the procedure: Example B16: Mycosphaerella Graminicola (Septoria Tritici)/Liquid Culture (Septoria Blotch) Conidia of the fungus from cryogenic storage are directly mixed into nutrient broth (PDB potato dextrose broth). After placing a (DMSO) solution of test compound into a microtiter plate (96-well format), the nutrient broth containing the fungal spores is added. The test plates are incubated at 24° C. and the inhibition of growth is determined photometrically 4-5 days after application. […] […].23.

Series [6] concerns Blumeria graminis f. sp. tritici (Erysiphe graminis f. sp. tritici). Nature of the series: Blumeria graminis f. sp. tritici / wheat / leaf disc preventative (powdery mildew on wheat). It is filed as in vivo. The following applies: foliar, wheat leaf segments, compared to untreated control. How it is done:
Example B4: Blumeria Graminis f. sp. Tritici (Erysiphe Graminis f. sp. Tritici)/Wheat/Leaf Disc Preventative (Powdery Mildew on Wheat) Wheat leaf segments cv. Kanzler are placed on agar in a multiwell plate (24-well format) and sprayed with the formulated test compound diluted in water. The leaf disks are inoculated by shaking powdery mildew infected plants above the test plates 1 day after application. The inoculated leaf disks are incubated at 20° C. and 60% rh under a light regime of 24 h darkness followed by 12 h light/12 h darkness in a climate chamber and the activity of a compound is assessed as percent disease control compared to untreated when an appropriate level of disease damage appears on untreated check leaf segments (6-8 days after application). […].23.

The test system of series [7] is Mycosphaerella arachidis (Cercospora arachidicola). Nature of the series: Mycosphaerella arachidis (Cercospora arachidicola) / liquid culture (early leaf spot). It is filed as cell-based. The following applies: growth inhibition photometrically 4-5 days after application, read-out: control of Mycosphaerella arachidis. On the procedure:
Example B8: Mycosphaerella Arachidis (Cercospora Arachidicola)/Liquid Culture (Early Leaf Spot) Conidia of the fungus from cryogenic storage are directly mixed into nutrient broth (PDB potato dextrose broth). After placing a (DMSO) solution of test compound into a microtiter plate (96-well format), the nutrient broth containing the fungal spores is added. The test plates are incubated at 24° C. and the inhibition of growth is determined photometrically 4-5 days after application. […] […].23.

The subject of another series is Fusarium culmorum. The class given is in vivo. The following applies: 200 ppm; wheat spikelets, preventative; compared to untreated control.
Series [8] relates to Glomerella lagenarium (Colletotrichum lagenarium). Description: Glomerella lagenarium (Colletotrichum lagenarium) / liquid culture (anthracnose). It is filed as cell-based. The following applies: Colletotrichum orbiculare, growth inhibition photometrically 3-4 days after application, read-out: control of Glomerella lagenarium. How it is done: Example B3: Glomerella Lagenarium (Colletotrichum Lagenarium)/Liquid Culture (Anthracnose) Conidia of the fungus from cryogenic storage are directly mixed into nutrient broth (PDB potato dextrose broth). After placing a (DMSO) solution of test compound into a microtiter plate (96-well format), the nutrient broth containing the fungal spores is added. The test plates are incubated at 24° C. and the inhibition of growth is measured photometrically 3-4 days after application.

Bounds are passed on as bounds.

Consider `Cc1sc(Nc2cc(F)nc(F)c2)nc1C(=O)NC1CCC1(C)C` (centres unmarked) [Compound E-0, 2-[(2,6-difluoro-4-pyridyl)amino]-N-(2,2-dimethylcyclobutyl)-5-methyl-thiazole-4-carboxamide, reference compound], for which the “Photostability T50” value in series [1] was found to be 3.5 h. For the same compound, the chromatographic logP in “physchem” was found to be 5.08. For the same compound, in series [2], the Solubility in heptane was found to be 4.1 ppm and the Solubility in water is 0.70 ppm.
For `Cc1sc(N(C#N)c2cc(F)nc(F)c2)nc1C(=O)NC1CCC1` [I.a.23, 2-[cyano-(2,6-difluoro-4-pyridyl)amino]-N-cyclobutyl-5-methyl-thiazole-4-carboxamide], the inhibition of growth at 20 ppm in series [3] and in [5] was ≥ 80% each time. Moreover, the pest or weed control at 200 ppm (in series [4]; in the series with Pyrenophora teres; in series [6]) was ≥ 80% each time.
Turning to `Cc1sc(N(C#N)c2cc(F)nc(F)c2)nc1C(=O)NC1CCC1(C)C` (centres unmarked) [I.b.23, 2-[cyano-(2,6-difluoro-4-pyridyl)amino]-N-(2,2-dimethylcyclobutyl)-5-methyl-thiazole-4-carboxamide], the inhibition of growth at 20 ppm in [7], in [3], in series [5] and in series [8] was ≥ 80% in each case. In addition, in the series on Fusarium culmorum, the “control of Fusarium culmorum” value is on record as “at least 80%”. Also, the “Photostability T50” value in [1] is recorded as 11 h. Moreover, the pest or weed control at 200 ppm (in [4]; with Pyrenophora teres; in series [6]) was ≥ 80% in each case. The compound also gave a chromatographic logP in the series “physchem” of 3.76. The Solubility in heptane in series [2] was found to be 699 ppm. In series [2], this compound had a Solubility in water of 2.5 ppm.
`Cc1sc(N(C#N)c2cc(F)nc(F)c2)nc1C(=O)NC1CCC12CCCC2` (centres unmarked) [I.c.23, 2-[cyano-(2,6-difluoro-4-pyridyl)amino]-5-methyl-N-spiro[3.4]octan-3-yl-thiazole-4-carboxamide]: the inhibition of growth at 20 ppm in series [7], in series [3], in series [5] and in series [8] was ≥ 80% in each case. The pest or weed control at 200 ppm (in [4]; in the series with Pyrenophora teres; in [6]) was ≥ 80% each time.
Regarding `Cc1sc(N(C#N)c2cc(F)nc(F)c2)nc1C(=O)NC1CCC12Cc1ccccc1C2` (centres unmarked) [I.d.23, 2-[cyano-(2,6-difluoro-4-pyridyl)amino]-5-methyl-N-spiro[cyclobutane-2,2′-indane]-1-yl-thiazole-4-carboxamide], the inhibition of growth at 20 ppm in series [7], in [3], in [5] and in series [8] was ≥ 80% in each case. The pest or weed control at 200 ppm (in [4]; in the series with Pyrenophora teres; in [6]) was ≥ 80% throughout.
For `Cc1sc(N(C#N)c2cc(F)nc(F)c2)nc1C(=O)NC1(C)CCCC1` [I.g.23, 2-[cyano-(2,6-difluoro-4-pyridyl)amino]-5-methyl-N-(1-methylcyclopentyl)thiazole-4-carboxamide], the inhibition of growth at 20 ppm in series [7], in series [3], in [5] and in [8] was ≥ 80% throughout. Moreover, the pest or weed control at 200 ppm (in series [4]; with Pyrenophora teres; in [6]) was ≥ 80% in each case.
Turning to `Cc1sc(N(C#N)c2cc(F)nc(F)c2)nc1C(=O)NCC(C)C` [I.i.23, 2-[cyano-(2,6-difluoro-4-pyridyl)amino]-N-isobutyl-5-methyl-thiazole-4-carboxamide], the inhibition of growth at 20 ppm in [3], in series [5] and in series [8] was ≥ 80% throughout. Moreover, the pest or weed control at 200 ppm (in [4]; with Pyrenophora teres; in series [6]) was ≥ 80% throughout.
With `Cc1sc(N(C#N)c2cc(F)nc(F)c2)nc1C(=O)NCC(C)(C)C` [I.k.23, 2-[cyano-(2,6-difluoro-4-pyridyl)amino]-N-(2,2-dimethylpropyl)-5-methyl-thiazole-4-carboxamide], the inhibition of growth at 20 ppm in series [7], in [3], in series [5] and in series [8] was ≥ 80% throughout. For the same compound, the pest or weed control at 200 ppm (in [4]; with Pyrenophora teres; in series [6]) was ≥ 80% in each case.
With `Cc1sc(N(C#N)c2cc(F)nc(F)c2)nc1C(=O)NCc1ccccc1` [I.o.23, N-benzyl-2-[cyano-(2,6-difluoro-4-pyridyl)amino]-5-methyl-thiazole-4-carboxamide], the inhibition of growth at 20 ppm in series [7], in series [3], in [5] and in series [8] was ≥ 80% throughout. For the same compound, the pest or weed control at 200 ppm in series [4] and in [6] was ≥ 80% each time.
Take `CCCCNC(=O)c1nc(N(C#N)c2cc(F)nc(F)c2)sc1C` [I.p.23, N-butyl-2-[cyano-(2,6-difluoro-4-pyridyl)amino]-5-methyl-thiazole-4-carboxamide]: the inhibition of growth at 20 ppm in series [7], in series [3], in series [5] and in series [8] was ≥ 80% throughout. Further, the pest or weed control at 200 ppm (in series [4]; in the series with Pyrenophora teres; in series [6]) was ≥ 80% in each case.

In general, chromatographic logP refers to a lipophilicity value derived from retention on a column. A lower chromatographic logP goes with a more hydrophilic compound.
